Converted amounts (≈) assume the structure as drawn.
Assays:
Type in all cases: cell-based
[1] = system: Escherichia coli NIHJ-JC-2; assay: Antibacterial activity, agar-dilution MIC, organism No. 5; details: Escherichia coli, NIHJJC2; Organism No. 5, bouillon-agar; read-out: Minimum Inhibitory Concentration
Outline: (§1)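 Testing uses agar dilution in bouillon agar. MIC = lowest inhibiting concentration, μg/ml medium.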

[2] = system: Staphylococcus aureus FDA 209PJc-1; assay: Antibacterial activity, agar-dilution MIC, organism No. 1; details: Staphylococcus aureus, FDA209PJC1; Organism No. 1, bouillon-agar; read-out: Minimum Inhibitory Concentration
Outline: as §1

[3] = system: Aspergillus niger IFO 6342; assay: Antifungal activity, agar-dilution MIC, organism No. 30; details: Aspergillus niger, IFO6342; Organism No. 30, bouillon-agar; read-out: Minimum Inhibitory Concentration
Outline: as §1

[4] = system: Staphylococcus aureus MS 353; assay: Antibacterial activity, agar-dilution MIC, organism No. 3; details: Staphylococcus aureus, MS353; Organism No. 3, bouillon-agar; read-out: Minimum Inhibitory Concentration
Outline: as §1

[5] = system: Salmonella enteritidis G 14; assay: Antibacterial activity, agar-dilution MIC, organism No. 12; details: Salmonella enterica, ENTERITIDIS; Organism No. 12, bouillon-agar; read-out: Minimum Inhibitory Concentration
Outline: as §1

[6] = system: Proteus rettgeri IFO 3850; assay: Antibacterial activity, agar-dilution MIC, organism No. 22; details: Providencia rettgeri, IFO3850; Organism No. 22, bouillon-agar; read-out: Minimum Inhibitory Concentration
Outline: as §1

[7] = system: Klebsiella pneumoniae PCI-602; assay: Antibacterial activity, agar-dilution MIC, organism No. 7; details: Klebsiella pneumoniae, PCI602; Organism No. 7, bouillon-agar; read-out: Minimum Inhibitory Concentration
Outline: as §1

[8] = system: Enterobacter aerogenes ATCC 13048; assay: Antibacterial activity, agar-dilution MIC, organism No. 23; details: Klebsiella aerogenes, ATCC13048; Organism No. 23, bouillon-agar; read-out: Minimum Inhibitory Concentration
Outline: as §1

[9] = system: Pseudomonas aeruginosa NCTC 10490; assay: Antibacterial activity, agar-dilution MIC, organism No. 16; details: Pseudomonas aeruginosa, NCTC10490; Organism No. 16, bouillon-agar; read-out: Minimum Inhibitory Concentration
Outline: as §1

[10] = system: Salmonella shottmuelleri 8006; assay: Antibacterial activity, agar-dilution MIC, organism No. 11; details: Salmonella, 8006; Organism No. 11, bouillon-agar; read-out: Minimum Inhibitory Concentration
Outline: as §1

[11] = system: Mycoplasma pneumoniae IID817; assay: Antimycoplasmal activity, MIC by phenol red colour change, organism No. 28; details: Mycoplasma, IID817; Organism No. 28, PPLO broth + 1% glucose, 37° C.; read-out: Minimum Inhibitory Concentration (MIC)
Method: Mycoplasma pneumoniae IID817 was used as the test microorganism in a culture medium prepared by adding 1% of glucose to "PPLO broth (manufactured by Difco Co.) liquid culture medium" at 37° C. with phenol red as an indicator, thereby culturing the test microorganism.

[12] = system: Pseudomonas aeruginosa IFO 3445; assay: Antibacterial activity, agar-dilution MIC, organism No. 15; details: Pseudomonas aeruginosa, IFO3445; Organism No. 15, bouillon-agar; read-out: Minimum Inhibitory Concentration
Outline: as §1

[13] = system: Bacillus subtilis ATCC 6633; assay: Antibacterial activity, agar-dilution MIC, organism No. 14; details: Bacillus subtilis, ATCC6633; Organism No. 14, bouillon-agar; read-out: Minimum Inhibitory Concentration
Outline: as §1

[14] = system: Pseudomonas aeruginosa PAO 1; assay: Antibacterial activity, agar-dilution MIC, organism No. 17; details: Pseudomonas aeruginosa, PAO1; Organism No. 17, bouillon-agar; read-out: Minimum Inhibitory Concentration
Outline: as §1

Enterobacter cloacae 963 = assay: Antibacterial activity, agar-dilution MIC, organism No. 24; details: Enterobacter cloacae, 963; Organism No. 24, bouillon-agar; read-out: Minimum Inhibitory Concentration
Outline: as §1

[15] = system: Streptococcus pyogenes Cook; assay: Antibacterial activity, agar-dilution MIC, organism No. 4; details: Streptococcus pyogenes; Organism No. 4, bouillon-agar; read-out: Minimum Inhibitory Concentration
Outline: as §1

[16] = system: Escherichia coli K12 C600 IAM 1264; assay: Antibacterial activity, agar-dilution MIC, organism No. 6; details: Escherichia coli, IAM1264; Organism No. 6, bouillon-agar; read-out: Minimum Inhibitory Concentration
Outline: as §1

Proteus vulgaris OX-19 = assay: Antibacterial activity, agar-dilution MIC, organism No. 20; details: Proteus vulgaris, OX19; Organism No. 20, bouillon-agar; read-out: Minimum Inhibitory Concentration
Outline: as §1

[17] = system: Proteus morganii IFO 3848; assay: Antibacterial activity, agar-dilution MIC, organism No. 18; details: Morganella morganii, IFO3848; Organism No. 18, bouillon-agar; read-out: Minimum Inhibitory Concentration
Outline: as §1

Salmonella typhi 901 = assay: Antibacterial activity, agar-dilution MIC, organism No. 9; details: Salmonella enterica, TYPHI, read-out: Minimum Inhibitory Concentration
Outline: as §1

[18] = system: Streptococcus pyogenes IFO 3340; assay: Antibacterial activity, agar-dilution MIC, organism No. 26; details: Streptococcus pyogenes, IFO3340; Organism No. 26, bouillon-agar; read-out: Minimum Inhibitory Concentration
Outline: as §1

[19] = system: Streptococcus faecium IFO 3826; assay: Antibacterial activity, agar-dilution MIC, organism No. 27; details: Enterococcus faecium, IFO3826; Organism No. 27, bouillon-agar; read-out: Minimum Inhibitory Concentration
Outline: as §1

[20] = system: Salmonella paratyphi-A 1015; assay: Antibacterial activity, agar-dilution MIC, organism No. 10; details: Salmonella enterica, PARATYPHI, read-out: Minimum Inhibitory Concentration
Outline: as §1

Proteus vulgaris HX-19 = assay: Antibacterial activity, agar-dilution MIC, organism No. 21; details: Proteus vulgaris, HX19; Organism No. 21, bouillon-agar; read-out: Minimum Inhibitory Concentration
Outline: as §1

[21] = system: Salmonella typhimurium IID 971; assay: Antibacterial activity, agar-dilution MIC, organism No. 8; details: Salmonella enterica; Organism No. 8, bouillon-agar; read-out: Minimum Inhibitory Concentration
Outline: as §1

[22] = system: Staphylococcus aureus Terajima; assay: Antibacterial activity, agar-dilution MIC, organism No. 2; details: Staphylococcus aureus; Organism No. 2, bouillon-agar; read-out: Minimum Inhibitory Concentration
Outline: as §1

[23] = system: Proteus mirabilis IFO 3849; assay: Antibacterial activity, agar-dilution MIC, organism No. 19; details: Proteus mirabilis, IFO3849; Organism No. 19, bouillon-agar; read-out: Minimum Inhibitory Concentration
Outline: as §1

[24] = system: Candida albicans IAM 4905; assay: Antifungal activity, agar-dilution MIC, organism No. 29; details: Candida albicans, IAM4905; Organism No. 29, bouillon-agar; read-out: Minimum Inhibitory Concentration
Outline: as §1

[25] = system: Micrococcus luteus ATCC 9341; assay: Antibacterial activity, agar-dilution MIC, organism No. 25; details: Micrococcus luteus, ATCC9341; Organism No. 25, bouillon-agar; read-out: Minimum Inhibitory Concentration
Outline: as §1

[26] = system: Serratia marcescens IAM 1184; assay: Antibacterial activity, agar-dilution MIC, organism No. 13; details: Serratia marcescens, IAM1184; Organism No. 13, bouillon-agar; read-out: Minimum Inhibitory Concentration
Outline: as §1

Row | SMILES | MIC [1] | MIC [2] | MIC [3] | MIC [4] | MIC [5] | MIC [6] | MIC [7] | MIC [8] | MIC [9] | MIC [10] | MIC [11] | MIC [12] | MIC [13] | MIC [14] | MIC (Enterobacter cloacae 963) | MIC [15] | MIC [16] | MIC (Proteus vulgaris OX-19) | MIC [17] | MIC (Salmonella typhi 901) | further results
1 | [C-]#[N+]C12CC3(/C=C/C(=O)OCc4cc([N+](=O)[O-])ccc4OC)OC3C1O2 (stereo not drawn) [Compound No. 16] | 200 µg/mL (≈ 558 µM) | 6.25 µg/mL (≈ 17.4 µM) | 6.25 µg/mL (≈ 17.4 µM) | 6.25 µg/mL (≈ 17.4 µM) | > 200 µg/mL | 100 µg/mL (≈ 279 µM) | 50 µg/mL (≈ 140 µM) | > 200 µg/mL | > 200 µg/mL | 50 µg/mL (≈ 140 µM) | 6.25 µg/mL | > 200 µg/mL | 25 µg/mL (≈ 69.8 µM) | > 200 µg/mL | > 200 µg/mL | 200 µg/mL (≈ 558 µM) | 200 µg/mL (≈ 558 µM) | 50 µg/mL (≈ 140 µM) | 12.5 µg/mL (≈ 34.9 µM) | 50 µg/mL (≈ 140 µM) | MIC [18]: 200 µg/mL (≈ 558 µM); MIC [19]: 6.25 µg/mL (≈ 17.4 µM); MIC [20]: 50 µg/mL (≈ 140 µM); MIC (Proteus vulgaris HX-19): 3.13 µg/mL (≈ 8.74 µM); MIC [21]: > 200 µg/mL; MIC [22]: 6.25 µg/mL (≈ 17.4 µM); MIC [23]: > 200 µg/mL; MIC [24]: 3.13 µg/mL (≈ 8.74 µM); MIC [25]: 0.1 µg/mL (≈ 0.279 µM); MIC [26]: 100 µg/mL (≈ 279 µM)
2 | [C-]#[N+]C12CC3(/C=C/C(N)=O)OC3C1O2 (stereo not drawn) [Compound No. 19] | 6.25 µg/mL (≈ 32.5 µM) | 6.25 µg/mL (≈ 32.5 µM) | 6.25 µg/mL (≈ 32.5 µM) | 6.25 µg/mL (≈ 32.5 µM) | 3.13 µg/mL (≈ 16.3 µM) | 6.25 µg/mL (≈ 32.5 µM) | 12.5 µg/mL (≈ 65 µM) | 100 µg/mL (≈ 520 µM) | > 200 µg/mL | 12.5 µg/mL (≈ 65 µM) | < 0.2 µg/mL | 100 µg/mL (≈ 520 µM) | 50 µg/mL (≈ 260 µM) | 200 µg/mL (≈ 1040 µM) | 6.25 µg/mL (≈ 32.5 µM) | 100 µg/mL (≈ 520 µM) | 6.25 µg/mL (≈ 32.5 µM) | 3.13 µg/mL (≈ 16.3 µM) | 3.13 µg/mL (≈ 16.3 µM) | 1.56 µg/mL (≈ 8.12 µM) | MIC [18]: 6.25 µg/mL (≈ 32.5 µM); MIC [19]: 100 µg/mL (≈ 520 µM); MIC [20]: 6.25 µg/mL (≈ 32.5 µM); MIC (Proteus vulgaris HX-19): 1.56 µg/mL (≈ 8.12 µM); MIC [21]: 12.5 µg/mL (≈ 65 µM); MIC [22]: 25 µg/mL (≈ 130 µM); MIC [23]: 50 µg/mL (≈ 260 µM); MIC [24]: 12.5 µg/mL (≈ 65 µM); MIC [25]: 25 µg/mL (≈ 130 µM); MIC [26]: 50 µg/mL (≈ 260 µM)
3 | [C-]#[N+]C12CC3(/C=C/C(=O)OCC(=O)c4ccc(Cl)cc4)OC3C1O2 (stereo not drawn) [compound 5] | 6.25 µg/mL (≈ 18.1 µM) | 0.05 µg/mL (≈ 0.145 µM) | 6.25 µg/mL (≈ 18.1 µM) | 0.78 µg/mL (≈ 2.26 µM) | 3.13 µg/mL (≈ 9.05 µM) | 100 µg/mL (≈ 289 µM) | 6.25 µg/mL (≈ 18.1 µM) | 100 µg/mL (≈ 289 µM) | > 100 µg/mL | < 0.05 µg/mL | < 0.05 µg/mL | > 100 µg/mL | 12.5 µg/mL (≈ 36.2 µM) | > 100 µg/mL | 0.1 µg/mL (≈ 0.289 µM) | 12.5 µg/mL (≈ 36.2 µM) | < 0.05 µg/mL | 0.39 µg/mL (≈ 1.13 µM) | 100 µg/mL (≈ 289 µM) | 3.13 µg/mL (≈ 9.05 µM) | MIC [18]: 1.56 µg/mL (≈ 4.51 µM); MIC [19]: 12.5 µg/mL (≈ 36.2 µM); MIC [20]: < 0.05 µg/mL; MIC (Proteus vulgaris HX-19): 0.39 µg/mL (≈ 1.13 µM); MIC [21]: 6.25 µg/mL (≈ 18.1 µM); MIC [22]: 0.78 µg/mL (≈ 2.26 µM); MIC [23]: 100 µg/mL (≈ 289 µM); MIC [24]: 1.56 µg/mL (≈ 4.51 µM); MIC [25]: < 0.05 µg/mL; MIC [26]: > 100 µg/mL
4 | [C-]#[N+]C12CC3(/C=C/C(=O)OCC(=O)c4ccc(C)cc4)OC3C1O2 (stereo not drawn) [compound 6] | > 100 µg/mL | 0.39 µg/mL (≈ 1.2 µM) | 3.13 µg/mL (≈ 9.62 µM) | 0.78 µg/mL (≈ 2.4 µM) | > 100 µg/mL | > 100 µg/mL | 50 µg/mL (≈ 154 µM) | > 100 µg/mL | > 100 µg/mL | 50 µg/mL (≈ 154 µM) | < 0.2 µg/mL | > 100 µg/mL | 100 µg/mL (≈ 307 µM) | > 100 µg/mL | > 100 µg/mL | > 100 µg/mL | > 100 µg/mL | 1.56 µg/mL (≈ 4.8 µM) | 12.5 µg/mL (≈ 38.4 µM) | 50 µg/mL (≈ 154 µM) | MIC [18]: < 100 µg/mL; MIC [19]: 25 µg/mL (≈ 76.8 µM); MIC [20]: > 100 µg/mL; MIC (Proteus vulgaris HX-19): 0.2 µg/mL (≈ 0.615 µM); MIC [21]: > 100 µg/mL; MIC [22]: 25 µg/mL (≈ 76.8 µM); MIC [23]: > 100 µg/mL; MIC [24]: 0.8 µg/mL (≈ 2.46 µM); MIC [25]: 0.39 µg/mL (≈ 1.2 µM); MIC [26]: > 100 µg/mL
